Test results taken from ChEMBL document CHEMBL4118242, “Computer-aided discovery and biological characterization of human lactate dehydrogenase 5 inhibitors with anti-osteosarcoma activity” (Bioorg Med Chem Lett, 2018).
pEC50, pIC50: −log10 of the molar value. Active and inactive are the calls of the source. No cut-off for these calls is given here.

How the values were obtained:
MG-63 [1] = assay: Antiproliferative activity against human MG63 cells after 72 hrs by MTT assay; assay type: functional, cell-based; details: MG-63, 72 h
[2] = molecular target: T1, L-lactate dehydrogenase A chain (Homo sapiens, UniProt P00338); assay: Inhibition of LDH5 in human MG63 cells assessed as increase in oxygen consumption rate at 1 uM after 4 hrs; assay type: cell-based
[3] = molecular target: T1, L-lactate dehydrogenase A chain; assay: Inhibition of human LDH5 at 10 uM using pyruvate as substrate after 10 mins
MG-63 [4] = assay: Antiproliferative activity against human MG63 cells at 10 uM after 72 hrs by MTT assay; assay type: functional, cell-based
MG-63 [5] = assay: Antiproliferative activity against human MG63 cells at 4 uM after 72 hrs by MTT assay; assay type: functional, cell-based
[6] = molecular target: T1, L-lactate dehydrogenase A chain; assay: Inhibition of human LDH5 using pyruvate as substrate after 10 mins
[7] = molecular target: T1, L-lactate dehydrogenase A chain; assay: Inhibition of human LDH5 at 1 uM using pyruvate as substrate after 10 mins
MG-63 [8] = assay: Antiproliferative activity in human MG63 cells at 4 uM after 24 to 72 hrs by IncuCyte zoom live cell imaging method; assay type: functional, cell-based
[9] = molecular target: T1, L-lactate dehydrogenase A chain; assay: Inhibition of LDH5 in human MG63 cells assessed as decrease in extracellular acidification rate after 4 hrs; assay type: cell-based
[10] = molecular target: T1, L-lactate dehydrogenase A chain; assay: Inhibition of LDH5 in human MG63 cells assessed as increase in oxygen consumption rate at 1 to 10 uM after 4 hrs; assay type: cell-based
[11] = molecular target: T1, L-lactate dehydrogenase A chain; assay: Inhibition of LDH5 in human MG63 cells assessed as decrease in lactate formation after 4 hrs; assay type: cell-based
[12] = molecular target: T1, L-lactate dehydrogenase A chain; assay: Inhibition of LDH5 in human MG63 cells assessed as induction of ROS generation at 5 to 10 uM after 4 hrs by DCFH-DA staining-based fluorescence assay; assay type: cell-based

Compound: O=C1N[C@](c2ccc(N3CCOCC3)cc2)(c2ccsc2)CC(O)=C1Sc1ccccc1Cl
- pIC50 (MG-63 [1]): 6.18
- Activity [2]: Active

Compound: COc1ccc([C@@H](NCc2c[nH]nc2-c2ccc(F)cc2)c2ccncc2)cc1
- inhibition [3]: inactive

Compound: O=C(Cn1ccnc1-c1ccccc1)NC[C@@H]1COc2ccccc2O1
- Activity (MG-63 [4]): Active
- Activity (MG-63 [5]): inactive

Compound: Cc1nc(C)c(CC(=O)N2CCN(CCOc3ccccc3)CC2)c(=O)[nH]1
- inhibition [3]: inactive

Compound: Cc1cccc(OC[C@H](O)CN2CCN(CCN3C(=O)c4cccc5cccc(c45)C3=O)CC2)c1C
- pEC50 [6]: 6.17
- Activity (MG-63 [4]): Active
- Activity (MG-63 [5]): inactive
- inhibition [7]: Active

Compound: COc1cccc(CN2CCCCC23CC3)c1OC[C@@H](O)CN1CCOCC1
- Activity (MG-63 [8]): Active
- pEC50 [6]: 6.41
- Activity (MG-63 [4]): Active
- inhibition [9]: Dose-dependent effect
- Activity [10]: Active
- pIC50 (MG-63 [1]): 5.50
- inhibition [11]: Dose-dependent effect
- Activity [12]: Active
- inhibition [7]: Active
